Results from ChEMBL document CHEMBL1201862, “PubChem BioAssay data set” (2004).
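The compound was tested at five concentrations on cells cultured in 96-well plates, with a 48-hour exposure period. GI50 is the concentration that inhibits growth by half.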 Calls of active or inactive are those of the source. No stated cut-off is given here; in the data, active = GI50 up to about 1.1 µM and inactive = higher.

What was measured:
Assay in all cases: NCI-60 cell line screen, 48 h
[1] = test system: UACC-62
[2] = test system: EKVX
[3] = test system: SF-539
[4] = test system: SN12C
[5] = test system: HCC 2998
[6] = test system: OVCAR-5
[7] = test system: HL-60
[8] = test system: COLO 205
[9] = test system: K562
[10] = test system: SK-MEL-28
[11] = test system: SW-620
[12] = test system: SK-MEL-2
[13] = test system: HOP-62
[14] = test system: HT-29
[15] = test system: A498
[16] = test system: SR

| SMILES | GI50 [1] | GI50 [2] | GI50 [3] | GI50 [4] | GI50 [5] | GI50 [6] | GI50 [7] | GI50 [8] | GI50 [9] | GI50 [10] | GI50 [11] | GI50 [12] | GI50 [13] | GI50 [14] | GI50 [15] | GI50 [16] |
| --- | --- | --- | --- | --- | --- | --- | --- | --- | --- | --- | --- | --- | --- | --- | --- | --- |
| O=C1Nc2cc(Cl)ccc2N=CC1NC(=O)C(c1ccccc1)c1ccccc1Cl (stereo unspecified) | > 100 µM (inactive) | > 100 µM (inactive) | > 100 µM (inactive) | > 100 µM (inactive) | > 100 µM (inactive) | > 100 µM (inactive) | > 100 µM (inactive) | > 100 µM (inactive) | > 100 µM (inactive) | > 100 µM (inactive) | > 100 µM (inactive) | > 100 µM (inactive) | > 100 µM (inactive) | > 100 µM (inactive) | > 100 µM (inactive) | – |
| O=C(CO[N+](=O)[O-])OCC(=O)c1ccccc1 | – | > 100 µM (inactive) | > 100 µM (inactive) | > 100 µM (inactive) | > 100 µM (inactive) | > 100 µM (inactive) | > 100 µM (inactive) | > 100 µM (inactive) | > 100 µM (inactive) | > 100 µM (inactive) | > 100 µM (inactive) | > 100 µM (inactive) | > 100 µM (inactive) | > 100 µM (inactive) | – | > 100 µM (inactive) |
| CCOc1ccc(NC(=O)/C(Cc2nc3ccccc3nc2O)=N\O)cc1 | > 100 µM (inactive) | 75 µM (inactive) | > 100 µM (inactive) | – | > 100 µM (inactive) | > 100 µM (inactive) | > 10 µM (inactive) | > 100 µM (inactive) | > 100 µM (inactive) | > 100 µM (inactive) | > 100 µM (inactive) | > 100 µM (inactive) | > 100 µM (inactive) | – | > 100 µM (inactive) | – |
| COc1cccc(-c2cc(C(=O)Nc3ccc(Cl)cc3)nc(N)n2)c1 | 42.6 µM (inactive) | > 100 µM (inactive) | 40 µM (inactive) | 57.7 µM (inactive) | 87.7 µM (inactive) | > 100 µM (inactive) | 32.7 µM (inactive) | 21.4 µM (inactive) | 40.5 µM (inactive) | 86.9 µM (inactive) | 36.7 µM (inactive) | > 100 µM (inactive) | > 100 µM (inactive) | 45.5 µM (inactive) | 61.9 µM (inactive) | 45.1 µM (inactive) |
| COC(=O)c1c/c(=N\NC(=O)CC(=O)Nc2ccc(C)cc2)c2ccccc2o1 | > 100 µM (inactive) | > 100 µM (inactive) | > 100 µM (inactive) | > 100 µM (inactive) | – | > 100 µM (inactive) | > 100 µM (inactive) | > 100 µM (inactive) | > 100 µM (inactive) | > 100 µM (inactive) | > 100 µM (inactive) | > 100 µM (inactive) | > 100 µM (inactive) | > 100 µM (inactive) | > 100 µM (inactive) | > 100 µM (inactive) |
| CCNC(=O)C#CC(=O)NCC | > 100 µM (inactive) | > 100 µM (inactive) | > 100 µM (inactive) | > 100 µM (inactive) | > 100 µM (inactive) | > 100 µM (inactive) | > 39.5 µM (inactive) | 44.6 µM (inactive) | > 45.3 µM (inactive) | > 10 µM (inactive) | > 48 µM (inactive) | > 100 µM (inactive) | > 100 µM (inactive) | > 100 µM (inactive) | > 10 µM (inactive) | > 41.9 µM (inactive) |
| Cn1c(=O)c2[nH]cnc2n(CC(N)=O)c1=O | > 100 µM (inactive) | > 100 µM (inactive) | > 100 µM (inactive) | > 100 µM (inactive) | – | – | – | > 100 µM (inactive) | > 100 µM (inactive) | > 100 µM (inactive) | > 100 µM (inactive) | > 100 µM (inactive) | > 100 µM (inactive) | > 100 µM (inactive) | > 100 µM (inactive) | > 100 µM (inactive) |
| Nn1c(S)nnc1NNC(=O)C(=O)Nc1cc(Cl)c(Cl)cc1Cl | > 100 µM (inactive) | > 100 µM (inactive) | > 100 µM (inactive) | > 100 µM (inactive) | > 100 µM (inactive) | > 100 µM (inactive) | – | > 100 µM (inactive) | 0.012 µM (active) | > 100 µM (inactive) | > 100 µM (inactive) | – | > 100 µM (inactive) | > 100 µM (inactive) | > 100 µM (inactive) | – |
| C[C@]12CCC(=O)C=C1CC[C@@H]1[C@@H]2CC[C@]2(C)C(=O)NC(=O)C[C@@H]12 | > 100 µM (inactive) | > 100 µM (inactive) | > 100 µM (inactive) | > 100 µM (inactive) | > 100 µM (inactive) | > 100 µM (inactive) | > 100 µM (inactive) | > 100 µM (inactive) | > 100 µM (inactive) | > 100 µM (inactive) | > 100 µM (inactive) | > 100 µM (inactive) | > 100 µM (inactive) | > 100 µM (inactive) | > 100 µM (inactive) | > 100 µM (inactive) |
